Assays:
[1] = tested on: breast cancer; experiment: Breast cancer patients treated with bevacizumab in the neoadjuvant setting; assay type: in vivo, human; settings: normal weight patients
[2] = tested on: PAN02 tumors; experiment: Orthotopic PAN02 PDAC in lean and obese C57BL/6 mice (5-FU, losartan, TAN depletion, IL-1β inhibition); assay type: in vivo, mouse; settings: for gene and protein expression of activated PSC marker αSMA: losartan 90 mg/Kg i.p. every day
Excerpt: (§1) Wild-type (WT) C57BL/6 and FVB male mice were originally obtained from Jackson Laboratory (The Jackson Laboratory, Bar Harbor, Me.) and bred and maintained in our defined-flora colony. KPC (Ptfl-Cre/LSL-KRAS^G12D/p53-R172H) and iKRAS (p48-Cre;R26-rtTa-IRES-EGFP;TetO-Kras^G12D mice) mice were obtained. To generate an obese model, mice (6-week old) were given either 10% or a 60% fat diet (D12450J and D12492, Research Diets, New Brunswick, N.J.) for 10 weeks (or until tumor collection in spontaneous models), as previously described (Surwit, R. S., et al. Metabolism: clinical and experimental 44, 645-651 (1995)). For implanted tumor experiments, AK4.4 cells (KrasG12D and p53 ? /−) were isolated from mice generating spontaneous pancreatic tumors (Ptf1-Cre/LSL-Kras^G12D/p53Lox/ ? ) (Bardeesy, N., et al. Proc Natl Acad SciUSA103, 5947-5952 (2006)). Orthotopic pancreatic tumors were generated by implanting a small piece (1 mm^3) of viable tumor tissue (from a source tumor in a separate animal) into the pancreas of a 6-8 week-old male lean or obese FVB (AK4.4 model) or C57BL/6 (PAN02 model) mouse. PAN02 tumor chunks and AK4.4 cells were authenticated by IDEXX laboratories. (PAN02: IDEXX RADIL Case # 22366-2013. AK4.4: IDEXX RADIL Case #27818-2014). For AT1- and AT2-knockout studies, tumors were implanted into the pancreas of a 6-8-week-old male lean or obese C57BL/ 6, agtr1 a−/− or agtr2−/− mice.
(§2) For all experiments unless specified below, mice bearing orthotropic PAN02 or AK4.4 pancreatic tumors were randomized into treatment groups (or no treatment) and tumors were collected at day 21 after implantation. For tumor growth study with chemotherapy, mice were divided into treatment groups 7 days after implantation, and treated with either 5-FU (30 mg/Kg i.v. every 4 days) or an equal volume of saline by intravenous injection on days 7, 11 and 15 after implantation, with tumors collected at day 19. For tumor growth study with losartan, mice were treated with losartan (90 mg/Kg i.p. every day) or an equal volume of PBS intraperitoneally starting on day 5 after implantation and for the duration of the study. In the combined experiment of losartan and 5-FU, the same protocol was used for each drug as described above. TAN depletion by a Ly6G specific inhibitor (BioExcell, 4 mg/Kg i.p. every 2 days) was administered to PAN02 bearing animals starting at day 1 or day 7, and to AK4.4 bearing animals at day 7. IL-1β inhibition (MM425B, Endogen/Pierce Biotechnology, 2 mg/Kg i.p. every 2 days) was administered to PAN02 bearing animals starting at day 7. At the completion of the study, adipose tissue and tumor samples were collected, weighed, and processed for further analysis. When spontaneous models were used, tumors were collected when palpable.
(§3) Angiotensin inhibitor losartan was obtained as pills, crushed and dissolved in PBS over 24 h. The solution was then sterile filtered for injection. Doxorubicin and 5-FU were obtained as solutions for injection. All drugs were purchased from the pharmacy at Massachusetts General
(§4) To assess obesity-induced ECM remodeling and fibrosis fibrillar collagen accumulation was quantified using second harmonic generation imaging, and collagen-I content, hyaluronan, MMPs levels and fibrosis related signaling pathways (e.g. AT-I, CTGF, TSP1, TGFβ1, and P38/ERK signaling) were measured by rtPCR array, immunohistochemistry and immunoblotting. The topographical distribution and density of cancer-associated fibroblasts (CAFs) in tumor sections was detected by staining for αSMA activated fibroblast marker. Vessel morphology and perfusion was assessed using standard histological analyses.

[3] = tested on: PAN02 tumors; experiment: Delivery of chemotherapy to tumors in lean and obese mice; settings: 5-FU 30 mg/kg, 30 min prior to tumor removal, HPLC
[4] = tested on: AK4.4 tumors; experiment: Orthotopic AK4.4 PDAC in lean and obese FVB mice (5-FU, losartan, TAN depletion); assay type: in vivo, mouse; settings: for response to chemotherapy: losartan with 5-FU
Excerpt: as §1, §2, §3, §4

[5] = lean mice, 3 doses of 5-FU 30 mg/kg BW q4d
[6] = obese conditions, 5-FU 30 mg/kg q4d
[7] = obese mice, losartan monotherapy
[8] = tumors from lean mice, losartan
[9] = tumors from obese but not lean mice, losartan
[10] = tumors from obese mice, losartan

bevacizumab: antibody against VEGF
tumor hypoxia [1]: acutely increases tumor hypoxia | tumor vessels [1]: reduces tumor vessels

O=c1[nH]cc(F)c(=O)[nH]1 [5-FU, 5-fluorouracil]
reduction in tumor weight as compared to untreated controls [2, 5]: 50% | tumor weight [2, 6]: did not significantly reduce tumor weight | delivery of 5-FU to tumors in obese mice versus lean [3]: decreased | reduction in tumor weight as compared to untreated controls [4, 5]: 50% | tumor weight [4, 6]: did not significantly reduce tumor weight

CCCCc1nc(Cl)c(CO)n1Cc1ccc(-c2ccccc2-c2nn[nH]n2)cc1 [losartan]
gene and protein expression of activated PSC marker αSMA ([2]; lean animals): only mildly | response to chemotherapy ([2]; obese animals, losartan with 5-FU): improved response to chemotherapy | cytokine expression in tumors (multiplex protein) ([2]; obese mice, losartan): reduced the expression of multiple cytokines including IL-1β | tumor weight [2, 7]: reduced tumor weight | gene and protein expression of collagen-I and fibrillar collagen [2, 8]: not lean mice | gene and protein expression of activated PSC marker αSMA ([2]; tumors from obese animals): reduce gene and protein expression | chemotherapy delivery [2, 9]: increase chemotherapy delivery | tumor perfusion [2, 9]: tended to improve perfusion | gene and protein expression of collagen-I and fibrillar collagen [2, 10]: decrease in gene and protein expression of collagen-I as well as fibrillar collagen | desmoplasia-related markers and AT1 downstream signaling ([4]; lean animals, losartan): only modest | gene and protein expression of activated PSC marker αSMA ([4]; lean animals, losartan): only mildly | response to chemotherapy ([4]; lean setting): improved response to chemotherapy | enrichment for GR(+)F480(-) cells within the CD45 population ([4]; losartan treatment): tended to decrease the enrichment | enrichment for T regulatory cells within CD4 cells ([4]; losartan treatment): tended to decrease | cytokine expression in tumors (multiplex protein) ([4]; obese mice, losartan): reduced the expression of multiple cytokines including IL-1β | desmoplasia-related markers (AT1, TGF-β, SMAD2, vimentin, E-cadherin, snail, MMP9, decorin) and AT1 downstream signaling ([4]; obese mice, losartan): normalized the obesity-induced abnormal expression | tumor weight [4, 7]: reduced tumor weight | response to chemotherapy ([4]; obese setting): higher magnitude | gene and protein expression of collagen-I and fibrillar collagen [4, 8]: not lean mice | gene and protein expression of activated PSC marker αSMA ([4]; tumors from obese animals, losartan 90 mg/Kg i.p. every day): reduce gene and protein expression | chemotherapy delivery [4, 9]: increase chemotherapy delivery | tumor perfusion [4, 9]: tended to improve perfusion | gene and protein expression of collagen-I and fibrillar collagen [4, 10]: decrease in gene and protein expression of collagen-I as well as fibrillar collagen

— patent US20180064662A1 (THE GENERAL HOSPITAL CORPORATION, priority 2015, published 2018)
